Measurements: patent publication US20090136517A1, “COMBINED TREATMENT WITH AN EGFR KINASE INHIBITOR AND AN INHIBITOR OF C-KIT” (priority 2007, published 2009)

Legend:
[1] = test system: MO7e human leukemia cells; settings: cited from earlier work
[2] = test system: NCI-H292 tumor xenografts; test: Treatment beyond progression model, NCI-H292 tumor xenografts; type: in vivo, female nu/nu CD-1 mice; settings: H292 xenografts progressing after 32 days of erlotinib; from time of re-sort; n=8 per group
Description: Many patients with NSCLC who initially respond to erlotinib therapy develop progressive disease within a year of treatment. […] The mechanism for this phenomenon is not currently known. To evaluate this a preclinical model of progressive disease was utilized. This model utilizes the NCI-H292 tumor xenografts which initially respond very well to erlotinib treatment.
To run the preclinical treatment beyond progression studies NCI-H292 cells were harvested from cell culture flasks during exponential cell growth, washed twice with sterile PBS, counted and resuspended in PBS to a suitable concentration before s.c. implantation on the right flank of female nu/nu CD-1 mice. Tumors were established to 200±50 mm^3 in size before randomization into vehicle control or erlotinib treatment groups. […] Each animal was maintained on its designated dosing regimen until its tumor volume from the time of re-sort had doubled.

GEO tumor xenografts = test: Treatment beyond progression, GEO model; type: in vivo, female nu/nu CD-1 mice; settings: GEO xenografts progressing after 15 days of erlotinib; from time of re-sort; n=8 per group
Description: To run the preclinical treatment beyond progression study GEO cells were harvested from cell culture flasks during exponential cell growth, washed twice with sterile PBS, counted and resuspended in PBS to a suitable concentration before s.c. implantation on the right flank of female nu/nu CD-1 mice. Tumors were established to 200±50 mm^3 in size before randomization into vehicle control or erlotinib treatment groups. […] Each animal was maintained on its designated dosing regimen until its tumor volume from the time of re-sort had doubled.

[3] = test system: H2122 NSCLC tumor xenografts; test: Growth of H2122 NSCLC tumor xenografts in mice; type: in vivo, female nu/nu CD-1 mice; settings: H2122 xenograft, 14th dosing day, single agent 100 mg/kg oral
Procedure: (refrigeration) until dosing. […] Resulting drug was kept at 5° C. (refrigeration) until dosing.

Row | SMILES | GM-CSF stimulated growth of MO7e cells ([1]; GM-CSF stimulated) | apoptosis of MO7e cells ([1]; Kit ligand-stimulated conditions) | Kit ligand-stimulated growth of MO7e cells ([1]; Kit ligand-stimulated) | time to tumor doubling [2] | time to tumor doubling (GEO tumor xenografts) | tumor volume as percent of the initial tumor volume [3]
1 | Cc1ccc(NC(=O)c2ccc(CN3CCN(C)CC3)cc2)cc1Nc1nccc(-c2cccnc2)n1 [Gleevec] | not affected | induces apoptosis | inhibited | – | – | –
2 | O=C(Nc1ccc(OC(F)(F)F)cc1)c1sccc1NCc1ccnc2ccccc12 [OSI-930, 3-[(Quinolin-4-ylmethyl)amino]-N-[4-(trifluoromethoxy)phenyl]thiophene-2-carboxamide] | – | – | – | 30 days | 23.5 days | ~120%
3 | C#Cc1cccc(Nc2ncnc3cc(OCCOC)c(OCCOC)cc23)c1 [erlotinib, [6,7-bis(2-methoxyethoxy)-4-quinazolin-4-yl]-(3-ethynylphenyl) amine] | – | – | – | 19.6 days | 16.7 days | approximately 250%
